Experimental data reported in US20250205184A1, “COLD COMPRESS SPRAY FOR RELIEVING GOUT AND PREPARATION METHOD THEREOF” (priority 2023, published 2025).

Test system: ankle joint swelling of rats caused by sodium urate crystals
Assay: Acute plantar/ankle joint swelling of rat caused by sodium urate crystals
Assay type: in vivo
Conditions: X ± SD, n = 9
Procedure: A process of preparing sodium urate crystallization and a sodium urate solution is as follows: 2 g of uric acid are added into 400 mL of boiling water to obtain an uric acid solution; a pH value of the uric acid solution is adjusted to 7.4 by using NaOH (1N) to obtain an adjusted solution; the adjusted solution is heated to a temperature of 95° C. to obtain a heated solution; then the heated solution is cooled and stirred gently at a room temperature to obtain a cooled solution; the cooled solution is allowed to stand for 4-6 hours at 4° C. to precipitate flocculent precipitates; microcrystalline sodium urate is obtained by filtering, and the microcrystalline sodium urate is sterilized at a high temperature of 80° C. 1000 milligrams (mg) of the sodium urate are ground fully to obtain sodium urate powder, and the sodium urate powder is added into 20 mL of sterile physiological saline to prepare a suspension with a concentration of 50 g/L (5%).
A process of grouping and administration is as follows: rats are adaptively fed for 3 days and randomly divided into 7 groups based on body weights. The 7 groups include a model control group, a positive drug indomethacin group, a first group, a second group, and a third group, a first comparison group, and a second comparison group. One hour before inflammation, the positive drug indomethacin group is administered with indomethacin through gavage (10 mL/kg). The first group is immediately administered with the cold compress spray (0.1 mL for each rat) obtained in the embodiment 1 after modeling; the second group is immediately administered with the cold compress spray (0.1 mL for each rat) obtained in the embodiment 2 after modeling; the third group is immediately administered with the cold compress spray (0.1 mL for each rat) obtained in the embodiment 3 after modeling; the first comparison group is immediately administered with the cold compress spray (0.1 mL for each rat) obtained in the comparative embodiment 1 after modeling; the second comparison group is immediately administered with the cold compress spray (0.1 mL for each rat) obtained in the comparative embodiment 2 after modeling; and the model control group is immediately administered with an excipient (0.1 mL for each rat) after modeling. Furthermore, after inflammation, the first group, the second group, the third group, the first comparison group, and the second comparison group are administered with corresponding cold compress sprays again after measurements of joint swelling at 6, 12, and 24 hours.
A process of modeling is as follows: an area around an ankle joint of a right hind limb of each rat is marked with a marker pen, and a joint circumference is measured as a normal value using a plantar volume meter. 0.2 mL of 5% sodium urate suspension are injected (the joint of each rat is extended and a needle is inserted at 45 degrees) into a joint cavity on a dorsal side of the right ankle joint of each rat of each group. Here, the modeling of each group is completed.
Results of joint swelling are as follows: a volume of the right ankle joint of each rat at 6, 12, 24, and 48 hours after inflammation is measured.

How did the “Volume of after modeling, 6 h” value (right ankle joint volume 6 h after inflammation) turn out when `COc1ccc2c(c1)c(CC(=O)O)c(C)n2C(=O)c1ccc(Cl)cc1` [Indomethacin, indomethacin] was run?
The value was 2.42 ± 0.15 mL.

And the “Volume of after modeling, 12 h” value (right ankle joint volume 12 h after inflammation)?
Its value is 2.29 ± 0.30 mL.

What about the “Volume of after modeling, 24 h” value (right ankle joint volume 24 h after inflammation) of the same compound?
The value was 2.18 ± 0.09 mL.

What about the “Volume of after modeling, 48 h” value (right ankle joint volume 48 h after inflammation) of the same compound?
The value was 2.16 ± 0.14 mL.

And the Volume before modeling (right ankle joint volume, baseline before sodium urate injection)?
Its Volume before modeling is 2.12 ± 0.21 mL.
